Converted amounts (≈) assume the structure as drawn. Like-named read-outs stand apart in the source and are kept apart here.
Key:
[1] = test system: C. tropicalis IBA 171; assay: Antifungal activity: MIC/MFC, disc-diffusion; assay type: cell-based; conditions: for MIC: Candida tropicalis, IBA171
Procedure: (§1) Direct antimicrobial activity was determined against the following standard strains: (1) Gram-positive cocci: methicillin-sensitive Staphylococcus aureus ATCC 6538P (MSSA), methicillin-resistant S. aureus subsp. aureus ATCC 43300 (MRSA), S. epidermidis ATCC 12228, Enterococcus faecium ATCC 6057, E. faecalis ATCC 29212, Bacillus subtilis ATCC 6633; (2) Gram-negative bacteria from Enterobacteriales order: Klebsiella pneumoniae ATCC 13883, Escherichia coli ATCC 25922, Enterobacter cloacae DSM 6234, Proteus mirabilis ATCC 12453, Serratia marcescens ATCC 13880; (3) Gram-negative non-fermentative rods: Acinetobacter baumannii ATCC 19606, Pseudomonas aeruginosa ATCC 27853, Stenotrophomonas maltophilia ATCC 12714, S. maltophilia ATCC 13637, Burkholderia cepacia ATCC 25416, Bordetella bronchiseptica ATCC 4617; (4) yeasts: Candida albicans ATCC 90028, C. krusei ATCC 6258, C. parapsilosis ATCC 22019, C. tropicalis (Castellani) Berkhout ATCC 750, C. tropicalis IBA 171, C. guilliermondii IBA 155, and Saccharomyces cerevisiae ATCC 9763. Moreover, 5 clinical strains of methicillin-resistant S. aureus were also included: NMI 664 K, NMI 1576 K, NMI 1712 K, NMI 1991 K, and NMI 2541 K. All strains were stored at −80 °C. Prior to testing, each bacterial strain was subcultured twice on tryptic soy agar TSA (bioMerieux) medium and yeast strains on Sabouraud dextrose agar (bioMerieux) for 24–48 h at 30 °C to ensure viability. The antimicrobial activity was evaluated as previously described[26] by the disc-diffusion method and the MIC determination assays according to the EUCAST (ref. [71] and [72]) and CLSI (ref. [53] and [73]) recommendations. Assessment of bactericidal (MBC) and fungicidal (MFC) activities was performed according to the CLSI recommendations.[54,74] The following reference agents were used: fluconazole (in the case of fungi), linezolid (for Gram-positive bacteria), and nitrofurantoin (for Gram-negative rods). The new benzosiloxaboroles were dissolved in DMSO (Sigma).

[2] = test system: C. parapsilosis ATCC 22019; assay: Antifungal activity: MIC/MFC, disc-diffusion; assay type: cell-based; conditions: for MIC: Lodderomyces parapsilosis, ATCC22019
Procedure: as §1

[3] = test system: C. tropicalis ATCC 750; assay: Antifungal activity: MIC/MFC, disc-diffusion; assay type: cell-based; conditions: for MIC: Candida tropicalis, ATCC750
Procedure: as §1

[4] = test system: C. guilliermondii IBA 155; assay: Antifungal activity: MIC/MFC, disc-diffusion; assay type: cell-based
Procedure: as §1

[5] = test system: A. baumannii ATCC 19606; assay: Antibacterial activity: MIC/MBC, MIC with PAβN, disc-diffusion; assay type: cell-based, Acinetobacter baumannii
Procedure: as §1, with “The following reference agents were used: fluconazole (in the case of fungi), linezolid (for Gram-positive bacteria), and nitrofurantoin (for Gram-negative rods).” left out
(§2) Considering that the MDR efflux pumps often contribute to Gram-negative rod resistance, the MIC values of studied agents, with or without the pump inhibitor, PAβN (20 μg mL^−1) (Sigma), were determined.[75] The MIC was determined using Mueller–Hinton II broth medium (MHB) (Becton Dickinson) by the broth microdilution method, according to the CLSI guideliness.[53] To minimize the influence of PAβN on the destabilization of bacterial cell covers, the tests were conducted in the presence of 1 mM MgSO4 (Sigma).[76] At least a 4-fold reduction in the MIC value after the addition of PAβN was considered significant.[56,77]

[6] = test system: E. cloacae DSM 6234; assay: as above; assay type: cell-based, Enterobacter cloacae; conditions: for MIC: Enterobacter cloacae, DSM6234
Procedure: as §1, with “The following reference agents were used: fluconazole (in the case of fungi), linezolid (for Gram-positive bacteria), and nitrofurantoin (for Gram-negative rods).” left out
as §2

[7] = test system: S. maltophilia ATCC 12714; assay: as above; assay type: cell-based, Stenotrophomonas maltophilia
Outline: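 Strains were subcultured twice on TSA at 30 °C. They were then tested by disc diffusion (EUCAST/CLSI), by CLSI broth-microdilution MIC in Mueller–Hinton II broth and by CLSI MBC, with compounds in DMSO.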

[8] = test system: B. cepacia ATCC 25416; assay: Antibacterial activity: MIC/MBC, disc-diffusion; assay type: cell-based, Burkholderia cepacia; conditions: Burkholderia cepacia, ATCC25416
Procedure: as §1, with “The following reference agents were used: fluconazole (in the case of fungi), linezolid (for Gram-positive bacteria), and nitrofurantoin (for Gram-negative rods).” left out
as §2

[9] = test system: S. aureus ATCC 6538P; assay: Antibacterial activity: MIC/MBC determination and disc-diffusion; assay type: cell-based, Staphylococcus aureus; conditions: for diameter of inhibition zone: disc-diffusion, — = zone not observed; for MBC / MIC: Staphylococcus aureus, ATCC6538P
Procedure: as §1

[10] = test system: P. aeruginosa ATCC 27853; assay: Antibacterial activity: MIC/MBC, MIC with PAβN, disc-diffusion; assay type: cell-based; conditions: Pseudomonas aeruginosa, ATCC27853
Procedure: as §1, with “The following reference agents were used: fluconazole (in the case of fungi), linezolid (for Gram-positive bacteria), and nitrofurantoin (for Gram-negative rods).” left out
as §2

[11] = Meyerozyma guilliermondii, IBA155, read-out: MIC
[12] = Acinetobacter baumannii, ATCC19606, A. baumannii ATCC 19606, read-out: MIC
[13] = E. cloacae DSM 6234, read-out: MIC
[14] = Stenotrophomonas maltophilia, ATCC12714, S. maltophilia ATCC 12714, read-out: MIC
[15] = B. cepacia ATCC 25416, read-out: MIC
[16] = S. aureus ATCC 6538P, read-out: MBC (first MBC where Eagle effect)
[17] = S. aureus ATCC 6538P, read-out: MIC
[18] = P. aeruginosa ATCC 27853, read-out: MIC

Row | SMILES | MIC ([1]; read-out: MIC) [µg/mL] | MIC ([2]; read-out: MIC) [µg/mL] | MIC ([3]; read-out: MIC) [µg/mL] | MIC [4, 11] [µg/mL] | MIC [5, 12] [µg/mL] | MIC [6, 13] [µg/mL] | MIC [7, 14] [µg/mL] | MIC [8, 15] [µg/mL] | diameter of inhibition zone ([9]; S. aureus ATCC 6538P) [mm] | MBC [9, 16] [µg/mL] | MIC [9, 17] [µg/mL] | MIC [10, 18] [µg/mL] | other results
1 | C[Si]1(C)OB(O)c2cc(F)c(SCCC(=O)Nc3cnccn3)c(F)c21 [Compound 10, 3-((5,7-Difluoro-3-hydroxy-1,1-dimethyl-1,3-dihydrobenzo[c][1,2,5]oxasilaborol-6-yl)thio)-N-(pyrazin-2-yl)propanamide] | > 400 | > 400 | > 400 | > 400 | > 400 | > 400 | > 400 | > 400 | 24 | 400 (≈ 1010 µM) | 50 (≈ 126 µM) | > 400 | 
2 | C[Si]1(C)OB(O)c2ccc(SC3CC(=O)NC3=O)c(F)c21 (centres unmarked) [Compound 13, 3-((7-Fluoro-3-hydroxy-1,1-dimethyl-1,3-dihydrobenzo[c][1,2,5]oxasilaborol-6-yl)thio)pyrrolidine-2,5-dione] | > 400 | > 400 | > 400 | > 400 | 50 (≈ 154 µM) | 400 (≈ 1230 µM) | 50 (≈ 154 µM) | > 400 | 20 | 200 (≈ 615 µM) | 25 (≈ 76.9 µM) | 200 (≈ 615 µM) | diameter of inhibition zone ([5]; A. baumannii ATCC 19606, (-) = zone not observed, paper discs 9 mm): 20 mm; MBC ([5]; Acinetobacter baumannii, ATCC19606, A. baumannii ATCC 19606): 100 µg/mL (≈ 308 µM); -fold reduction of MIC in the presence of PAβN ([6]; E. cloacae DSM 6234, PAβN 20 μg mL^−1, MHB + 1 mM MgSO4): 4 -fold; diameter of inhibition zone ([7]; S. maltophilia ATCC 12714, (-) = zone not observed, paper discs 9 mm): 17 mm; MBC ([7]; Stenotrophomonas maltophilia, ATCC12714, S. maltophilia ATCC 12714): 200 µg/mL (≈ 615 µM); MBC ([10]; P. aeruginosa ATCC 27853): 400 µg/mL (≈ 1230 µM)
3 | CCOP(=O)(OCC)Sc1c(F)cc2c(c1F)[Si](C)(C)OB2O [Compound 24, S-(5,7-Difluoro-3-hydroxy-1,1-dimethyl-1,3-dihydrobenzo[c][1,2,5]oxasilaborol-6-yl) O,O-diethyl phosphorothioate] |  |  |  |  |  |  |  |  | 32 |  |  |  | MIC [1]: > 400 µg/mL; MIC [2]: > 400 µg/mL; MIC [3]: > 400 µg/mL; MIC ([4]; Meyerozyma guilliermondii, IBA155): > 400 µg/mL; MIC ([5]; Acinetobacter baumannii, ATCC19606): > 400 µg/mL; MIC [6]: > 400 µg/mL; MIC ([7]; Stenotrophomonas maltophilia, ATCC12714): > 400 µg/mL; MIC [8]: > 400 µg/mL; MIC [9]: 6.25 µg/mL (≈ 16.4 µM); MBC ([9]; read-out: MBC (first MBC where Eagle effect)): 12.5 µg/mL (≈ 32.7 µM); MBC ([9]; read-out: second MBC (Eagle effect)): > 400 µg/mL; MIC [10]: > 400 µg/mL
4 | C[Si]1(C)OB(O)c2ccc(SC3CC(=O)N(c4ccc(Br)c(C(F)(F)F)c4)C3=O)c(F)c21 (centres unmarked) [Compound 17, 1-(4-Bromo-3-(trifluoromethyl)phenyl)-3-((7-fluoro-3-hydroxy-1,1-dimethyl-1,3-dihydrobenzo[c][1,2,5]oxasilaborol-6-yl)thio)pyrrolidine-2,5-dione] | 200 (≈ 365 µM) | 50 (≈ 91.2 µM) | 100 (≈ 182 µM) | 50 (≈ 91.2 µM) | > 200 | > 200 | > 200 | > 200 | 19 | 100 (≈ 182 µM) | 25 (≈ 45.6 µM) | > 200 | diameter of inhibition zone ([1]; C. tropicalis IBA 171, (-) = zone not observed, paper discs 9 mm): 16 mm; diameter of inhibition zone ([2]; C. parapsilosis ATCC 22019, (-) = zone not observed, paper discs 9 mm): 22 mm; diameter of inhibition zone ([3]; C. tropicalis ATCC 750, (-) = zone not observed, paper discs 9 mm): 14 mm; diameter of inhibition zone ([4]; C. guilliermondii IBA 155, (-) = zone not observed, paper discs 9 mm): 27 mm; MFC ([4]; Meyerozyma guilliermondii, IBA155, C. guilliermondii IBA 155): 200 µg/mL (≈ 365 µM)
5 | C[Si]1(C)OB(O)c2cc(F)c(S(=O)(=O)N3CCOCC3)c(F)c21 [Compound 29, 5,7-Difluoro-1,1-dimethyl-6-(morpholinosulfonyl)benzo[c][1,2,5]oxasilaborol-3(1H)-ol] |  |  |  |  | > 400 | > 400 | > 400 | > 400 | 16 | 400 (≈ 1100 µM) | 200 (≈ 551 µM) | > 400 | 
